# Target: T1, RORc ligand binding domain (Homo sapiens, UniProt P51449)
# T1 construct: host or cells: E. coli
# T1 sequence (P51449 269-508 limits assumed): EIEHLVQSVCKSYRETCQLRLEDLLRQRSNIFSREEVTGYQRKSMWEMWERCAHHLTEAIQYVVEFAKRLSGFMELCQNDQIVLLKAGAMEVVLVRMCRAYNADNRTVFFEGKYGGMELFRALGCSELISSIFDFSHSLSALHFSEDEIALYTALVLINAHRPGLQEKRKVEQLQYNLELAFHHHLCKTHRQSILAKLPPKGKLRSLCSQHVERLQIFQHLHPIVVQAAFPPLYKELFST
# Experiment: In vitro RORc ligand binding assay (25-[3H]hydroxycholesterol displacement, filter binding)
# Details: 6 nM 25-[3H]hydroxycholesterol, 0.6 ug/mL RORc receptor, 3 h at 25° C.
# Method in brief: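 Compounds in 5% DMSO, either dose-response or screened at 1 and 10 uM, competed with 6 nM 25-[3H]hydroxycholesterol for 0.6 ug/mL RORc over 3 h at 25° C (HEPES pH 7.4, NaCl, MgCl2, DTT, BSA buffer). Bound tracer was filter-harvested and counted; nonspecific binding came from 1 uM 25-hydroxycholesterol.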
row,Structure (SMILES),IC50 [nM]
1,"CNC(=O)[C@@]12CC[C@@H](c3cc(-c4ccccc4F)nnc31)C2(C)C [Example 178, (5R,8R)-3-(2-fluorophenyl)-N,9,9-trimethyl-5,6,7,8-tetrahydro-5,8-methanocinnoline-8-carboxamide]",2050
2,"CC1(C)[C@@H]2CC[C@@]1(C(=O)N1CC(F)(F)C1)c1nnc(-c3ccccc3F)cc12 [Example 332, (3,3-difluoroazetidin-1-yl)((5S,8S)-3-(2-fluorophenyl)-9,9-dimethyl-5,6,7,8-tetrahydro-5,8-methanocinnolin-8-yl)methanone]",1400
3,"Cc1noc([C@]23CC[C@H](c4cc(-c5c(F)cccc5F)nnc42)C3(C)C)n1 [Example 60, (5S,8S)-3-(2,6-difluorophenyl)-9,9-dimethyl-8-(3-methyl-1,2,4-oxadiazol-5-yl)-5,6,7,8-tetrahydro-5,8-methanocinnoline]",415
4,"CN1C[C@@H]2C[C@H]1CN2C(=O)[C@]12CC[C@H](c3cc(-c4c(F)cccc4F)nnc31)C2(C)C [Example 239, ((5S,8S)-3-(2,6-difluorophenyl)-9,9-dimethyl-5,6,7,8-tetrahydro-5,8-methanocinnolin-8-yl)((1S,4S)-5-methyl-2,5-diazabicyclo[2.2.1]heptan-2-yl)methanone]",892
5,"C[C@H]1CCCN1C(=O)[C@]12CC[C@H](c3cc(-c4c(F)cccc4F)nnc31)C2(C)C [Example 234, ((5S,8S)-3-(2,6-difluorophenyl)-9,9-dimethyl-5,6,7,8-tetrahydro-5,8-methanocinnolin-8-yl)((S)-2-methylpyrrolidin-1-yl)methanone]",238
6,"CC1(C)[C@@H]2CC[C@@]1(C(=O)N1C[C@@H]3C[C@H]1CO3)c1nnc(-c3c(F)cccc3F)cc12 [Example 231, (1S,4S)-2-oxa-5-azabicyclo[2.2.1]heptan-5-yl((5S,8S)-3-(2,6-difluorophenyl)-9,9-dimethyl-5,6,7,8-tetrahydro-5,8-methanocinnolin-8-yl)methanone]",241
7,"CC(=O)NCC(=O)N(CCO)C[C@@]12CC[C@@H](c3cc(-c4c(F)cccc4F)nnc31)C2(C)C [Example 298, 2-acetamido-N-(((5R,8S)-3-(2,6-difluorophenyl)-9,9-dimethyl-5,6,7,8-tetrahydro-5,8-methanocinnolin-8-yl)methyl)-N-(2-hydroxyethyl)acetamide]",705
8,"CC1(C)[C@@H]2CC[C@@]1(C(=O)N1CCC(C(N)=O)C1)c1nnc(-c3c(F)cccc3F)cc12 (stereo partly drawn) [Example 249, 1-((5S,8S)-3-(2,6-difluorophenyl)-9,9-dimethyl-5,6,7,8-tetrahydro-5,8-methanocinnoline-8-carbonyl)pyrrolidine-3-carboxamide]",3120
9,"CC1(C)[C@@H]2CC[C@@]1(C(=O)N1CCC(C#N)C1)c1nnc(-c3c(F)cccc3F)cc12 (stereo partly drawn) [Example 245, 1-((5S,8S)-3-(2,6-difluorophenyl)-9,9-dimethyl-5,6,7,8-tetrahydro-5,8-methanocinnoline-8-carbonyl)pyrrolidine-3-carbonitrile]",126
10,"Cc1nnc(N(Cc2ccccc2)C[C@@]23CC[C@@H](c4cc(-c5c(F)cccc5F)nnc42)C3(C)C)o1 [Example 266, N-benzyl-N-(((5R,8S)-3-(2,6-difluorophenyl)-9,9-dimethyl-5,6,7,8-tetrahydro-5,8-methanocinnolin-8-yl)methyl)-5-methyl-1,3,4-oxadiazol-2-amine]",214
11,"CC1(C)[C@H]2CC[C@]1(C(N)=O)c1nnc(-c3c(F)cccc3F)cc12 [Example 77, (5R,8R)-3-(2,6-difluorophenyl)-9,9-dimethyl-6,7-dihydro-5,8-methanocinnoline-8(5H)-carboxamide]",1460
12,"CNC(=O)C1CCN(C(=O)[C@]23CC[C@H](c4cc(-c5c(F)cccc5F)nnc42)C3(C)C)C1 (stereo partly drawn) [Example 244, 1-((5S,8S)-3-(2,6-difluorophenyl)-9,9-dimethyl-5,6,7,8-tetrahydro-5,8-methanocinnoline-8-carbonyl)-N-methylpyrrolidine-3-carboxamide]",904
13,"Cc1nnc(N(CCN(C)C)C[C@@]23CC[C@@H](c4cc(-c5c(F)cccc5F)nnc42)C3(C)C)o1 [Example 260, N1-(((5R,8S)-3-(2,6-difluorophenyl)-9,9-dimethyl-5,6,7,8-tetrahydro-5,8-methanocinnolin-8-yl)methyl)-N2,N2-dimethyl-N1-(5-methyl-1,3,4-oxadiazol-2-yl)ethane-1,2-diamine]",3410
14,"CC(=O)Nc1ccc(-c2cc3c(nn2)[C@@]2(C)CC[C@@H]3C2(C)C)cn1 [Example 95, N-{5-[(5R,8S)-8,9,9-trimethyl-5,6,7,8-tetrahydro-5,8-methanocinnolin-3-yl]pyridin-2-yl}acetamide]",3320
15,"C=C1C[C@@H]2c3cc(-c4ccccc4F)nnc3[C@@]1(C)C2(C)C [Example 51, (5S,8R)-3-(2-fluorophenyl)-8,9,9-trimethyl-7-methylidene-5,6,7,8-tetrahydro-5,8-methanocinnoline]",657

# Stronger by IC50, values ahead:
row,IC50 [nM],Structure (SMILES)
1,96,"Cc1coc([C@@]23CC[C@@H](c4cc(-c5c(F)cccc5F)nnc42)C3(C)C)n1 [Example 108, (5R,8R)-3-(2,6-difluorophenyl)-9,9-dimethyl-8-(4-methyl-1,3-oxazol-2-yl)-5,6,7,8-tetrahydro-5,8-methanocinnoline]"
2,56,"CCN(CC(N)=O)C[C@@]12CC[C@@H](c3cc(-c4c(F)cccc4F)nnc31)C2(C)C [Example 304, 2-((((5R,8S)-3-(2,6-difluorophenyl)-9,9-dimethyl-5,6,7,8-tetrahydro-5,8-methanocinnolin-8-yl)methyl)(ethyl)amino) acetamide]"
3,52,"CN([C@@]12CC[C@@H](c3cc(-c4c(F)cccc4F)nnc31)C2(C)C)S(=O)(=O)C(F)(F)F [Example 319, N-((5R,8R)-3-(2,6-difluorophenyl)-9,9-dimethyl-5,6,7,8-tetrahydro-5,8-methanocinnolin-8-yl)-1,1,1-trifluoro-N-methylmethanesulfonamide]"
4,23,"CC1(C)[C@@H]2CC[C@@]1(C(=O)N1CCCC1)c1nnc(-c3c(F)cccc3F)cc12 [Example 69, [(5S,8S)-3-(2,6-difluorophenyl)-9,9-dimethyl-6,7-dihydro-5,8-methanocinnolin-8(5H)-yl](pyrrolidin-1-yl)methanone]"
5,19,"COCC1CN(C(=O)[C@]23CC[C@H](c4cc(-c5c(F)cccc5F)nnc42)C3(C)C)C1 [Example 140, ((5S,8S)-3-(2,6-difluorophenyl)-9,9-dimethyl-5,6,7,8-tetrahydro-5,8-methanocinnolin-8-yl)(3-(methoxymethyl)azetidin-1-yl)methanone]"
6,19,"Cc1nnc(N(C[C@@]23CC[C@@H](c4cc(-c5c(F)cccc5F)nnc42)C3(C)C)C(C)C)o1 [Example 152, N-(((5R,8S)-3-(2,6-difluorophenyl)-9,9-dimethyl-5,6,7,8-tetrahydro-5,8-methanocinnolin-8-yl)methyl)-N-isopropyl-5-methyl-1,3,4-oxadiazol-2-amine]"
7,6,"CCN(C[C@@]12CC[C@@H](c3cc(-c4c(F)cccc4F)nnc31)C2(C)C)c1ccccn1 [Example 163, N-(((5R,8S)-3-(2,6-difluorophenyl)-9,9-dimethyl-5,6,7,8-tetrahydro-5,8-methanocinnolin-8-yl)methyl)-N-ethylpyridin-2-amine]"
